Columns and labels:
Kv1.5 = target: T1, Kv1.5 (Homo sapiens, UniProt P22460); experiment: Kv1.5 Patch Clamp EP; assay type: cell-based; conditions: 1.0 μM, single point; whole cell patch clamp, Kv1.5 stably over expressed in HEK or LTK- cells
T1 construct: expressed in transfected cells; host or cells: HEK or LTK- cells
Procedure: The external solution is standard Tyrodes solution. […] Inhibition was measured at the end of the 1 second pulses and expressed relative to controls. Initial Kv1.5 inhibition is estimated by single point determinations done at 1 μM.

L-type calcium channels = experiment: FLIPR L-Type Calcium Channel Assay; assay type: cell-based, murine; conditions: HL-1 cells expressing endogenous L-type calcium channels; calcium influx after 20 mM KCl; read-out: L-type Ca^2+ IC50
Procedure: 50 μL per well test compounds are added to the plates and further incubated for 15 min. in a 5% CO2 37° C. incubator. All final solutions contain the anion exchange inhibitor, probenecid (2.5 mM). The 96-well plates are then placed in the center position of the FLIPR 1 (Fluorometric Imaging Plate Reader, Molecular Devices Corporation). Cell monolayers in each well are simultaneously illuminated at 488 nm with an Argon ion laser, and fluorescence emission is monitored using a 510-570 nm bandpass filter and a cooled CCD camera. To depolarize the plasma membrane and activate L-type calcium channels, 50 μL per well of 20 mM KCl (final concentration) are dispensed simultaneously to all 96 wells using the FLIPR's automatic 96-well pipettor. Fluorescence measurements are captured for 5 min. following KCl addition. Calcium influx, expressed as % control, is calculated for each concentration of test compound and concentration-response curves and IC50 values are generated using GraphPad Prism 4.0.

HERG = HERG (Homo sapiens, UniProt Q12809); experiment: HERG Patch Clamp EP; conditions: human, HEK cells stably overexpressing HERG
Chain of HERG (Q12809 whole entry): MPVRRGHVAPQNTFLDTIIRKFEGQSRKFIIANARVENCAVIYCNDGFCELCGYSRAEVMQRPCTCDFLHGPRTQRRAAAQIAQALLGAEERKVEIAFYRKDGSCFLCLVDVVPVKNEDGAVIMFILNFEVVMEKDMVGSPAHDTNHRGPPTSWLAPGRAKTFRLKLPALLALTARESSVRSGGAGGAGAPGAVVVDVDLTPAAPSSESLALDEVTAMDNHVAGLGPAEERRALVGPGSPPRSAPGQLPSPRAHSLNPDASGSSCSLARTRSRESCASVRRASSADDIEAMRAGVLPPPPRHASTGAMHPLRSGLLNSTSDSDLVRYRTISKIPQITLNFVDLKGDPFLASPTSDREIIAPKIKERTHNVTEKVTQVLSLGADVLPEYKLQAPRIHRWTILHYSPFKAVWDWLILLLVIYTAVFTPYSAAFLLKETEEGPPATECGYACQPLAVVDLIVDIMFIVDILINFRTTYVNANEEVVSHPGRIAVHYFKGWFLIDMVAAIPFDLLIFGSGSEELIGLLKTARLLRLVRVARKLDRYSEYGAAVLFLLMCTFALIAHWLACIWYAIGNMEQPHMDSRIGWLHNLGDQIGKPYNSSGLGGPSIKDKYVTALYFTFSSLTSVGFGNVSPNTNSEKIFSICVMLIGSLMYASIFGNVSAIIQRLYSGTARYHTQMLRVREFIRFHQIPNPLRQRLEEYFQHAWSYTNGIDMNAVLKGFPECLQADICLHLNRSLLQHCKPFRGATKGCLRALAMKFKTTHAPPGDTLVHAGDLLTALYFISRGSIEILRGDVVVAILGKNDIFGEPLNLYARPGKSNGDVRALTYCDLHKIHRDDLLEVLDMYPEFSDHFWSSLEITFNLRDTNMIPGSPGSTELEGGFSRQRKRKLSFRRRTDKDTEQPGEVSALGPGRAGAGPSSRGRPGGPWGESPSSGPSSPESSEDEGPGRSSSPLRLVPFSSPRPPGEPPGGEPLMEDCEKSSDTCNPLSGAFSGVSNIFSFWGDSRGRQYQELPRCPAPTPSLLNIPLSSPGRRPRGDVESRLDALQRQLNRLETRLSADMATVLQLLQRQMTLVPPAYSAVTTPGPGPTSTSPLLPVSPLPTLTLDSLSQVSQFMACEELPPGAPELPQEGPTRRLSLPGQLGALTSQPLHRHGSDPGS
Procedure: HERG currents are recorded by the whole cell mode of patch clamp electrophysiology as described by Hamill et al.^3 HERG is stably over expressed in HEK cells. Microelectrodes are pulled from borosilicate glass (TW150) and heat polished (tip resistance, 1.5 to 3 megaohms). The external solution is standard Tyrodes solution. The internal (microelectrode) solution contained: 110 mM KCl, 5 mM K2ATP, 5 mM K4BAPTA, 1 mM MgCl2 and 10 mM HEPES, adjusted to pH 7.2 with KOH. […] Compounds are prepared as 10-20 mM DMSO stocks and diluted to appropriate test concentrations. […] Inhibition of HERG is measured at the peak of the tail currents and expressed relative to controls. Initial HERG activity is estimated by single point determinations run at 10 μM. Concentration response curves are generated for appropriate compounds utilizing at least four concentrations and an n=3. Curve fitting and IC50 estimating are done using Graphpad software (Ver. 4). • 1.

T1 sequence (P22460 whole entry): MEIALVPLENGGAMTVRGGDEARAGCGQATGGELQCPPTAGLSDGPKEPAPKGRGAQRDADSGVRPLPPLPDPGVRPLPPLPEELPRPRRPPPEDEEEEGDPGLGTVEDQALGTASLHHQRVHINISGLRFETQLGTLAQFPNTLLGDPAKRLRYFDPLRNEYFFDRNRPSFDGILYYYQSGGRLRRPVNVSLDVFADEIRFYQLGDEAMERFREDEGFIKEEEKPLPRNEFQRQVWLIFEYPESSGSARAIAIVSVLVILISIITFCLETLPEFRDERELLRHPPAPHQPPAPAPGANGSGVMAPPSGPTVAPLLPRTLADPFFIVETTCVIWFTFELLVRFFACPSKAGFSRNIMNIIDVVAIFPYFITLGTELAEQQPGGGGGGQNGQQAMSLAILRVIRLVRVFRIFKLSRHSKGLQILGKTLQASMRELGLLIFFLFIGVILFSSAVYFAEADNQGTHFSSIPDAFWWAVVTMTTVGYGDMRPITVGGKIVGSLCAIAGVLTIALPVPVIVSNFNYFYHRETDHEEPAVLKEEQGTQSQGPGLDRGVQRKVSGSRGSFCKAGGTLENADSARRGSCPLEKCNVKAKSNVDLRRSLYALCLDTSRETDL

| Compound | inhibition at 1 µM (Kv1.5) | IC50 (L-type calcium channels) | inhibition at 10 µM (HERG) | Kv1.5% inhibition @ 1.0 μM (Kv1.5) |
| --- | --- | --- | --- | --- |
| COc1ccc(CCN2C(=O)N(NS(=O)(=O)CF)CC2c2ccc(C3CC3)cc2)cc1 (centres unmarked) [Compound 34, 1-(Fluoromethylsulfonylamino)-3-[2-(4-methoxyphenyl)ethyl]-4-(4-cyclopropyl-phenyl)-2-imidazolidinone] | 98% | 18 µM | 38% |  |
| tert-butyl [2-({4-(4-tert-butylphenyl)-3-[2-(4-methoxyphenyl)ethyl]-2-oxoimidazolidin-1-yl}amino)-2-oxoethyl]methylcarbamate [Compound 109] |  | 4.6 µM |  | 71% |
| COc1ccc(CCN2C(=O)N(NCCc3ccccc3)CC2c2ccc(C)c(C)c2)cc1 (centres unmarked) [Compound 97, 1-[(Phenylethyl)amino]-3-[2-(4-methoxyphenyl)ethyl]-4-(3,4-dimethylphenyl)-2-imidazolidinone] | 81% | 3.5 µM |  |  |
| COc1ccc(CCN2C(=O)N(NS(=O)(=O)CC(=O)N(C)C)CC2c2ccc(OC)cc2)cc1 (centres unmarked) [Compound 55, 1-[[2-(Dimethylamino)-2-oxoethyl]sulfonylamino]-3-[2-(4-methoxyphenyl)-ethyl]-4-(4-methoxyphenyl)-2-imidazolidinone] | 29% | 29 µM |  |  |
| COc1ccc(CCN2C(=O)N(NCc3ccc(N(C)C)cc3)CC2c2ccc(C(C)(C)C)cc2)cc1 (centres unmarked) [Compound 91, 1-[(4-(Dimethylamino)phenylmethyl)amino]-3-[2-(4-methoxyphenyl)ethyl]-4-[4-(tert-butyl)phenyl]-2-imidazolidinone] | 85% | 4 µM |  |  |
| COc1ccc(CCN2C(=O)N(NC(=O)CN(C)Cc3ccccc3)CC2c2ccc(C(C)(C)C)cc2)cc1 (centres unmarked) [Compound 81, 2-(Benzylmethylamino)-N-{4-[4-(tert-butyl)phenyl]-3-[2-(4-methoxyphenyl)-ethyl]-2-oxo-imidazolidin-1-yl}-acetamide] | 78% | 4 µM |  |  |
| COc1ccc(CCN2C(=O)N(NS(C)(=O)=O)CC2C2CCCCC2)cc1 (centres unmarked) [Compound 145, N-{4-cyclohexyl-3-[2-(4-methoxyphenyl)ethyl]-2-oxoimidazolidin-1-yl}methanesulfonamide] | 16% |  | 11% |  |
| CCCCS(=O)(=O)NN1CC(c2ccc(C3CC3)cc2)N(CCc2ccc(OC)cc2)C1=O (centres unmarked) [Compound 31, 1-(Butylsulfonylamino)-3-[(4-methoxyphenyl)ethyl]-4-(4-cyclopropylphenyl)-2-imidazolidinone] | 84% | 4 µM |  |  |
| COc1ccc(CCN2C(=O)N(NC(=O)C3CC3)CC2c2ccc(C)c(C)c2)cc1 (centres unmarked) [Compound 72, Cyclopropanecarboxylic acid N-{3-[2-(4-methoxyphenyl)ethyl]-4-(3,4-dimethylphenyl)-2-oxo-imidazolidin-1-yl}-amide] | 81% | 18 µM |  |  |
| COC(=O)c1ccc(NN2CC(c3ccc(C)c(C)c3)N(CCc3ccc(OC)cc3)C2=O)c(N)c1 (centres unmarked) [Compound 135, methyl 3-amino-4-({4-(3,4-dimethylphenyl)-3-[2-(4-methoxyphenyl)ethyl]-2-oxoimidazolidin-1-yl}amino)benzoate] | 53% | 8 µM |  |  |
| CCC1(CC)CN(NS(C)(=O)=O)C(=O)N1CCc1ccc(OC)cc1 [Compound 111, N-{4,4-diethyl-3-[2-(4-methoxyphenyl)ethyl]-2-oxoimidazolidin-1-yl}methanesulfonamide] | 9% |  | 33% |  |
| COc1ccc(CCN2C(=O)N(NCc3ccc(-n4ccnc4)cc3)CC2c2ccc(C)c(C)c2)cc1 (centres unmarked) [Compound 98, 1-[(4-(1H-imidazol-1-yl)phenylmethyl)amino]-3-[2-(4-methoxyphenyl)ethyl]-4-(3,4-dimethylphenyl)-2-imidazolidinone] | 83% | 4.8 µM |  |  |
| COc1ccc(CCN2C(=O)N(NC(=O)c3ccno3)CC2c2ccc(C)c(C)c2)cc1 (centres unmarked) [Compound 78, 1-(Isoxazol-5-ylcarbonylamino)-3-[2-(4-methoxyphenyl)-ethyl]-4-(3,4-dimethylphenyl)-2-imidazolidinone] | 75% | 11 µM |  |  |
| COc1ccc(C2CN(NS(C)(=O)=O)C(=O)N2CCc2ccc(OC(F)F)cc2)cc1 (centres unmarked) [Compound 142, N-[3-{2-[4-(difluoromethoxy)phenyl]ethyl}-4-(4-methoxyphenyl)-2-oxoimidazolidin-1-yl]methanesulfonamide] | 40% |  | 91% |  |
| COc1ccc(CCN2C(=O)N(NS(C)(=O)=O)CC2c2ccc(Cl)cc2)cc1 (centres unmarked) [Compound 21, 1-(Methylsulfonylamino)-3-[2-(4-methoxyphenyl)ethyl]-4-(4-chlorophenyl)-2-imidazolidinone] | 72% | 26 µM |  |  |
| COc1ccc(CCN2C(=O)N(N)CC2c2ccc(C)c(C)c2)cc1 (centres unmarked) [Compound 1, 1-Amino-3-[2-(4-methoxyphenyl)ethyl]-4-(3,4-dimethylphenyl)-2-imidazolidinone] | 59% | 5.5 µM |  |  |

| Compound | inhibition at 1 µM (Kv1.5) | IC50 (L-type calcium channels) | inhibition at 10 µM (HERG) | Kv1.5% inhibition @ 1.0 μM (Kv1.5) |
| --- | --- | --- | --- | --- |
| COc1ccc(CCN2C(=O)N(NCc3ccccc3)CC2c2ccc(C(C)(C)C)cc2)cc1 (centres unmarked) [Compound 87, 1-Benzylamino-3-[2-(4-methoxyphenyl)ethyl]-4-[4-(tert-butyl)phenyl]-2-imidazolidinone] | 57% | 6 µM |  |  |
| CCCCS(=O)(=O)NN1CC(c2ccc(C(C)(C)C)cc2)N(CCc2ccc(OC)cc2)C1=O (centres unmarked) [Compound 32, 1-(Butylsulfonylamino)-3-[(4-methoxyphenyl)-ethyl]-4-[4-(tert-butyl)phenyl]-2-imidazolidinone] | 69% | 6.7 µM |  |  |
| CCCCC1CN(NS(C)(=O)=O)C(=O)N1CCc1ccc(OC)cc1 (centres unmarked) [Compound 128, N-{4-butyl-3-[2-(4-methoxyphenyl)ethyl]-2-oxoimidazolidin-1-yl}methanesulfonamide] | 8% |  | 19% |  |
| COc1ccc(CCN2C(=O)N(NS(=O)(=O)C(F)(F)F)CC2c2ccc(C(C)(C)C)cc2)cc1 (centres unmarked) [Compound 148, N-{4-(4-tert-butylphenyl)-3-[2-(4-methoxyphenyl)ethyl]-2-oxoimidazolidin-1-yl}-1,1,1-trifluoromethanesulfonamide] | 2% |  |  |  |
| COc1ccc(CCN2C(=O)N(N)CC2c2ccc(C)cc2)cc1 (centres unmarked) [Compound 159, 1-amino-3-[2-(4-methoxyphenyl)ethyl]-4-(4-methylphenyl)imidazolidin-2-one] | 4% |  |  |  |
| COCCOc1ccc(C2CN(N)C(=O)N2CCc2ccc(OC)cc2)cc1 (centres unmarked) [Compound 141, 1-amino-4-[4-(2-methoxyethoxy)phenyl]-3-[2-(4-methoxyphenyl)ethyl]imidazolidin-2-one] | 4% |  |  |  |
| COc1ccc(CCN2C(=O)N(NCc3ccccn3)CC2c2ccc(C)c(C)c2)cc1 (centres unmarked) [Compound 93, 1-[(Pyridin-2-ylmethyl)amino]-3-[2-(4-methoxyphenyl)ethyl]-4-(3,4-dimethylphenyl)-2-imidazolidinone] | 46% |  |  |  |
| COc1ccc(CCN2C(=O)N(NS(C)(=O)=O)CC2c2ccc3c(c2)OCO3)cc1 (centres unmarked) [Compound 15, 1-(Methylsulfonylamino)-3-[2-(4-methoxyphenyl)ethyl]-4-(benzo[1,3]dioxol-5-yl)-2-imidazolidinone] | 46% |  |  |  |
| COc1ccc(CCCN2C(=O)N(NS(=O)(=O)CS(C)(=O)=O)CC2c2ccc(OC)cc2)cc1 (centres unmarked) [Compound 126, N-{4-(4-methoxyphenyl)-3-[3-(4-methoxyphenyl)propyl]-2-oxoimidazolidin-1-yl}-1-(methylsulfonyl)methanesulfonamide] | 46% |  |  |  |
| COc1ccc(CCN2C(=O)N(N)CC2Cc2ccc(F)cc2)cc1 (centres unmarked) [Compound 129, 1-amino-4-(4-fluorobenzyl)-3-[2-(4-methoxyphenyl)ethyl]imidazolidin-2-one] | 4% |  |  |  |
| COc1ccc(CCN2C(=O)N(N)CC2c2ccc(OC(F)(F)F)cc2)cc1 (centres unmarked) [Compound 110, 1-amino-3-[2-(4-methoxyphenyl)ethyl]-4-[4-(trifluoromethoxy)phenyl]imidazolidin-2-one] | 7% |  |  |  |
| COc1ccc(CCN2C(=O)N(NS(C)(=O)=O)CC2c2ccc(F)cc2)cc1 (centres unmarked) [Compound 137, N-{4-(4-fluorophenyl)-3-[2-(4-methoxyphenyl)ethyl]-2-oxoimidazolidin-1-yl}methanesulfonamide] | 4% |  |  |  |
| COCCOc1ccc(C2CN(NS(C)(=O)=O)C(=O)N2CCc2ccc(OC)cc2)cc1 (centres unmarked) [Compound 151, N-{4-[4-(2-methoxyethoxy)phenyl]-3-[2-(4-methoxyphenyl)ethyl]-2-oxoimidazolidin-1-yl}methanesulfonamide] | 8% |  |  |  |
| COc1ccc(CCN2C(=O)N(NC(=O)c3ccco3)CC2c2ccc(C)c(C)c2)cc1 (centres unmarked) [Compound 74, 1-(2-Furanoylamino)-3-[2-(4-Methoxyphenyl)ethyl]-4-(3,4-dimethylphenyl)-2-imidazolidinone] | 85% | 25 µM |  |  |
| COc1ccc(CCN2C(=O)N(NS(=O)(=O)CCl)CC2c2ccc(C(C)(C)C)cc2)cc1 (centres unmarked) [Compound 39, 1-(Chloromethylsulfonylamino)-3-[2-(4-methoxyphenyl)ethyl]-4-(4-tert-butyl-phenyl)-2-imidazolidinone] | 81% | 12 µM |  |  |

From patent US7504517B2, “Kv1.5 potassium channel inhibitors” (Wyeth, priority 2006, dated 2009)
